Series [1] deals with normal prostate epithelial cells (PrECs).
Description: (§2) LNCaP androgen-dependent (p53^+/+) and PC-3 androgen-nonresponsive (p53^−/−) prostate cancer cells were purchased from the American Type Culture Collection (Manassas, Va.), and cultured in RPMI 1640 medium containing 10% heat-inactivated FBS. […] All cell types were cultured at 37° C. in a humidified incubator containing 5% CO2. Cells in log phase growth were harvested by trypsinization for use in the MTT viability assay. LNCaP cells were plated in poly-D-lysine coated culture flasks in order to assist cell adherence to the surface. Prior to drug treatment, cells were plated in a density of 12,000 cells/cm^2 surface area in the respective culture medium for 24-48 h, followed by individual test agents in 2.5% FBS-supplemented RPMI medium.
Series [2] relates to Akt, ERK, JNK and p38 phosphorylation in PC-3 cells. Put plainly: Western blot of kinase phosphorylation in PC-3 cells. It is filed as cell-based. The protocol:
(§1) Cells cultured in T25 flasks were collected by scraping, and cell pellets were washed once with PBS. Cells were lysed in a lysis buffer consisting of 1% SDS, 10 mM EDTA and 50 mM Tris-HCl, pH 8.1, in the presence of a commercial protease inhibitor cocktail from Aldrich-Sigma (2 mM AEBSF, 1 mM EDTA, 130 μM bestatin, 14 μM E-64, 1 μM leupeptin, and 0.3 μM aprotinin). Following a 10-sec sonication using 20% output in a Virsonic 300 sonicator (Virtis, Gardiner N.Y.) to disrupt cellular organelles and genomic DNA, cell lysates were centrifuged at 15,200×g for 15 minutes. One μL of the suspension was used for protein determination using a colorimetric BCA assay (Pierce, Rockford, Ill.), and to the remaining solution was added an equivalent volume of 2×SDS-polyacrylamide gel electrophoresis sample loading buffer (62.5 mM Tris-HCl, pH 6.8, 4% SDS, 5% β-mercaptoethanol, 20% glycerol, and 0.1% bromophenol blue), and boiled for 5 min. Equal amounts of proteins were resolved in 8% SDS-polyacrylamide gels, and transferred to nitrocellulose membranes using a semidry transfer cell. The transblotted membrane was washed twice with Tris-buffered saline containing 0.1% Tween 20 (TBST). After blocking with TBST containing 5% nonfat milk for 40 min, the membrane was incubated with the appropriate primary antibody in TBST-1% nonfat milk at 4° C. overnight. […]
In general terms: In western blotting, separated proteins are transferred to a membrane and probed.

For series [3], the system named is AR mRNA in LNCaP cells. The series can be described thus: RT-PCR of AR mRNA in LNCaP cells. Format: cell-based. As to conditions: 10 μM. The protocol:
RNA Isolation and Reverse Transcription (RT)-PCR.
LNCaP cells were subject to total RNA isolation by using a Trizol reagent (Invitrogen Corporation, CA). RNA concentrations were determined by measuring absorption at 260 nm in a spectrophotometer. Aliquots of 2 μg of total RNA from each sample were reverse transcribed to cDNAs using the iScript cDNA Synthesis Kit (Bio-Rad) according to the manufacturer's instructions. PCR products were resolved electrophoretically in 1.2% agarose gels and visualized by ethidium bromide staining.

The test system of series [4] is LNCaP cells. Put plainly: MTT viability assay, LNCaP cells. Format: cell-based. Background: Tetrazolium dyes change colour on reduction, which living cells bring about.
Description: as §2
In series [5] the target is T1, PP2A (Homo sapiens, UniProt P67775).
T1 construct: endogenous in cells; host or cells: LNCaP
Put plainly: PP2A immunoprecipitation phosphatase activity assay in drug-treated LNCaP cells. It is filed as cell-based. To be noted: for PP2A phosphatase activity: LNCaP cells, 12 h drug exposure; for PP2A expression (protein level): after drug treatment, Western blot. The protocol: PP2A activity in drug-treated cells was determined by using a PP2A Immunoprecipitation Phosphatase Assay Kit (Millipore) according to the manufacturer's instructions. LNCaP cells were exposed to DMSO, VES, or TS-1 at the indicated concentrations in 2.5% FBS supplemented medium for 12 h, and subjected to cell lysis in a phosphate-free lysis buffer containing 20 mmol/L imidazole-HCl, pH 7.0, 2 mM EDTA, 2 mM EGTA, 2 mM AEBSF, 1 mM EDTA, 130 μM bestatin, 14 μM E-64, 1 μM leupeptin, and 0.3 μM aprotinin. The suspension was sonicated (Virtis) at 20% output for 10 sec, followed by centrifugation at 2000×g for 5 min. One-μL aliquots of the supernatants were taken for protein determination by BCA assays, and the remaining supernatants were used for phosphatase activity assays. Aliquots of cell lysates containing 400 μg of proteins were combined with 4 μg of anti-PP2Ac antibody (Millipore), to which was added PP2A assay buffer (20 mmol/L Hepes pH 7.0, 100 mM NaCl) to a final volume of 500 μL followed by 40 μL of Protein A-agarose. Mixtures were incubated at 4° C. for 2 h, and briefly centrifuged. The immunocomplexes were washed and used for the phosphatase activity assay. The amounts of PP2A in the immunocomplexes were determined semi-quantitatively by Western blotting.

In series [6] the test system is Sp1. The series can be described thus: Sp1 protein expression, stability and ubiquitination in LNCaP cells. It is filed as cell-based. To be noted: for Sp1 protein half-life relative to DMSO control / Sp1 protein expression: LNCaP cells; for Sp1 ubiquitination: LNCaP cells expressing HA-ubiquitin and Flag-Sp1, 24 h; for Sp1 protein expression: Western blot. The protocol: Cells cultured in T25 flasks were collected by scraping, and cell pellets were washed once with PBS. Cells were lysed in a lysis buffer consisting of 1% SDS, 10 mM EDTA and 50 mM Tris-HCl, pH 8.1, in the presence of a commercial protease inhibitor cocktail from Aldrich-Sigma (2 mM AEBSF, 1 mM EDTA, 130 μM bestatin, 14 μM E-64, 1 μM leupeptin, and 0.3 μM aprotinin). Following a 10-sec sonication using 20% output in a Virsonic 300 sonicator (Virtis, Gardiner N.Y.) to disrupt cellular organelles and genomic DNA, cell lysates were centrifuged at 15,200×g for 15 minutes. One μL of the suspension was used for protein determination using a colorimetric BCA assay (Pierce, Rockford, Ill.), and to the remaining solution was added an equivalent volume of 2×SDS-polyacrylamide gel electrophoresis sample loading buffer (62.5 mM Tris-HCl, pH 6.8, 4% SDS, 5% β-mercaptoethanol, 20% glycerol, and 0.1% bromophenol blue), and boiled for 5 min. Equal amounts of proteins were resolved in 8% SDS-polyacrylamide gels, and transferred to nitrocellulose membranes using a semidry transfer cell. The transblotted membrane was washed twice with Tris-buffered saline containing 0.1% Tween 20 (TBST). After blocking with TBST containing 5% nonfat milk for 40 min, the membrane was incubated with the appropriate primary antibody in TBST-1% nonfat milk at 4° C. overnight. All primary antibodies were diluted 1:1000 in 1% nonfat milk-containing TBST. After treatment with the primary antibody, the membrane was washed three times with TBST for a total of 15 min, followed by incubation with goat anti-rabbit or anti-mouse Immunoglobulin G (IgG)-horseradish peroxidase conjugates (diluted 1:2000) for 1 h at room temperature and four washes with TBST for a total of 1 h. The immunoblots were visualized by enhanced chemiluminescence.
LNCaP cells were co-transfected with 5 μg each of Flag-Sp1 and HA-ubiquitin plasmids in an Amaxa Nucleofector using a LNCaP-specific nucleofector kit. These transiently transfected cells were seeded in 6-well plates at 2×10^5 per well. After 48-h incubation, cells were exposed to VES or TS-1 at the indicated concentration for 48 h, and lysed by a radioimmunoprecipitation assay lysis buffer (Santa Cruz Biotechnology) in the presence of a freshly prepared cocktail of phosphatase and protease inhibitors (2 mmol/L AEBSF, 1 mM EDTA, 130 μM bestatin, 14 μM E-64, 1 μM leupeptin, and 0.3 μM aprotinin, 2 mM imidazole, 1 mM sodium fluoride, 1.15 mM sodium molybdate, 1 mM sodium orthovanadate, and 4 mmol/L sodium tartrate dihydrate). After centrifugation at 13,000×g for 15 min, the supernatants were collected, preincubated with protein A/G agarose (Santa Cruz Biotechnology) for 15 min, and centrifuged at 1,000×g for 5 min. Supernatant (20 μL) were stored at 4° C. to be used as input, whereas the remaining supernatant was exposed to 4 μg of anti-Sp1 antibodies at 4° C. for 12 h, followed by protein A/G agarose beads at 4° C. for another 2 h. After brief centrifugation, immunoprecipitates were collected, washed with the aforementioned lysis buffer four times, suspended in 2×SDS sample buffer, and subjected to Western blot analysis with antibodies against HA and Flag.

In series [7] the test system is Akt, ERK, JNK and p38 phosphorylation in LNCaP cells. Put plainly: Western blot of kinase phosphorylation in LNCaP cells. It is filed as cell-based. The protocol: as §1
Series [8] has as its system normal prostate epithelial cells (PrECs). Put plainly: MTT viability assay, normal prostate epithelial cells.
Description: as §2

The structures appear in SMILES notation. Where two headings read alike, the source gives them in different places.

T1 sequence (P67775 whole entry): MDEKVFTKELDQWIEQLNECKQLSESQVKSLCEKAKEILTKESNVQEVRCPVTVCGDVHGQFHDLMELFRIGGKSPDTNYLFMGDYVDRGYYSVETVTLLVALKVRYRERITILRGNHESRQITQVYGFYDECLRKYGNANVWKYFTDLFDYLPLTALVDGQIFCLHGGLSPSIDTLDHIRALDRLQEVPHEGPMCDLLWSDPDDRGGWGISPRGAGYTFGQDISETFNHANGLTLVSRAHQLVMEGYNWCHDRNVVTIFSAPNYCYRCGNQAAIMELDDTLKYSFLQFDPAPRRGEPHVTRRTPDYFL

For `Cc1c(C)c2c(c(C)c1OC(=O)CCC(=O)O)CC[C@@](C)(CCC[C@H](C)CCC[C@H](C)CCCC(C)C)O2` [VES, α-tocopheryl succinate], in series [1], the “antiproliferative effect on PrECs relative to malignant cells” value is “resistant”. Also, the “phosphorylation levels of Akt, ERK, JNK, p38” value (“phosphorylation levels of Akt” below) in series [2] is reported as “also noted in PC-3 cells”. Further, the “AR mRNA transcript level” value in series [3] was “time-dependent reduction”. Further, the “cell viability of LNCaP cells” value in series [4] is reported as “suppressing the cell viability”. For the same molecule, in series [5], the PP2A phosphatase activity result is listed as “increase PP2A phosphatase activity” and the “PP2A expression (protein level)” value is reported as “without affecting its expression”. For the same molecule, in series [6], the “Sp1 protein half-life relative to DMSO control” value is recorded as “shortened half-life”, the Sp1 ubiquitination result is recorded as “increased the extent of Sp1 ubiquitination” and the Sp1 protein expression entry is on record as “reduce Sp1 levels”. Further, the “phosphorylation levels of Akt” value in series [7] is “dose-dependent reduction in the phosphorylation levels of all four kinases examined”.
As for `Cc1c(C)c2c(c(C)c1OC(=O)CCC(=O)O)CCC(C)(CCCC(C)CCCC(C)C)O2` (centres unmarked) [TS-1, succinic acid mono-[2-(4,8-dimethyl-nonyl)-2,5,7,8-tetramethylchroman-6-yl]ester], the “antiproliferative effect on PrECs relative to malignant cells” value in series [8] is “resistant”. Further, the “phosphorylation levels of Akt” value in series [2] is reported as “also noted in PC-3 cells”. Moreover, the “AR mRNA transcript level” value in series [3] is recorded as “time-dependent reduction”. Besides, the “cell viability of LNCaP cells” value in series [4] is reported as “suppressing the cell viability”. Further, in series [5], the PP2A phosphatase activity result is given as “increase PP2A phosphatase activity” and the “PP2A expression (protein level)” value is on record as “without affecting its expression”. In series [6], the “Sp1 protein half-life relative to DMSO control” value is given as “shortened half-life”, the Sp1 ubiquitination result is listed as “increased the extent of Sp1 ubiquitination” and the Sp1 protein expression result was “reduce Sp1 levels”. The “phosphorylation levels of Akt” value in series [7] was “dose-dependent reduction in the phosphorylation levels of all four kinases examined”.
